{"source": "patent US8343536B2", "about": "“Biofilm-inhibiting medical products” (Cook Biotech Incorporated, priority 2007, dated 2013)", "assay_type_in_all_cases": "cell-based", "key": {"E. coli (ATCC #25922)": {"tested_on": "E. coli (ATCC #25922)", "assay": "Zone-of-inhibition measured by image analysis, coated SIS discs (Example 2)", "conditions": "10 μg/cm^2 on SIS disc, 24 hours, n=3", "method": "(§1) BisEDT (Molar ratio 1:1.5), BisBAL (1:1.5), and BisERY (1:1.5) (50 mg each) were obtained from Microbion, Inc. Small intestinal submucosa (SIS) was obtained and processed into 4-layer lyophilized sheets as described in Example 1. The sheets were subsequently cut into 15 mm discs (˜1.76 cm^2) using a disc punch. Bismuth thiols were resuspended in dimethyl sulfoxide (DMSO) and diluted to 0.35 μg/μl for coating. Discs were coated with the bismuth thiol solutions 50 μl of the appropriate solution per disc for a final concentration 10 μg/cm^2 (0.35 μg/μl*50 μl=17.5 μg/1.76 cm^2=10 μg/cm^2). The discs were subsequently placed in a lyophilizer overnight to remove the DMSO solvent. Control discs were prepared using 50 μl of DMSO without a bismuth thiol preparation. 3 bacteria were used for this experiment: S. aureus (ATCC #25983), P. aeruginosa (ATCC #27853), and E. coli (ATCC #25922). Bacteria was grown in Tryptic Soy Broth for 16-24 hours before placing a lawn on Tryptic Soy Agar in 100 mm Petri dishes.\n(§2) Thirty samples were tested in total (3 bismuth thiol preparations @ n=3→9+1 control=10×3 bacteria=30). A lawn of one of the three bacteria investigated was swabbed onto the Tryptic Soy Agar. The bismuth thiol coated disc was rehydrated for ˜5 minutes in sterile saline and placed approximately in the center of the plate. Plates were incubated inverted for 24 hours at which time pictures were taken with a digital camera. Zones-of-inhibition were measured using image analysis software (Spot RT) by determining the distance of bacterial growth inhibition from the disc edge."}, "S. aureus (ATCC #25983) [1]": {"tested_on": "S. aureus (ATCC #25983)", "assay": "Zone-of-inhibition measured by image analysis, coated SIS discs (Example 2)", "conditions": "10 μg/cm^2 on SIS disc, 24 hours, n=3", "method": "as §1, §2"}, "S. aureus (ATCC #25983) [2]": {"tested_on": "S. aureus (ATCC #25983)", "assay": "Zone-of-inhibition after various rehydration times of coated SIS discs (Example 3)", "method": "(§3) BisEDT (Molar ratio 1:1.5) and BisBAL (1:1.5) (50 mg each) were obtained from Microbion, Inc. Small intestinal submucosa (SIS) was obtained and processed into 4-layer lyophilized sheets as described in Example 1. The sheets were subsequently cut into 15 mm discs (˜1.76 cm^2) using a disc punch. Bismuth thiols were resuspended in dimethyl sulfoxide (DMSO) and diluted to appropriate concentrations for coating. Discs were coated with the bismuth thiol solutions at a final concentration of 0.35 μg/μl using 50 μl of the solution per disc for a final concentration of 10 μg/cm^2. The discs were subsequently placed in a lyophilizer overnight to remove the DMSO solvent. S. aureus (ATCC #25983) was used as the bacteria for this experiment. Bacteria was grown in Tryptic Soy Broth for 16-24 hours before placing a lawn on Tryptic Soy Agar in 100 mm Petri dishes.\nThirty six samples were tested in total (2 BT*n=3→6*6 rehydration times→36). A lawn of S. aureus was swabbed onto the Tryptic Soy Agar. For the 0 rehydration time point, the bismuth thiol coated disc was placed approximately in the center of the plate and rehydrated with ˜50 μl of sterile saline. Other rehydration times were varied at 5, 10, 20, 30, or 60 minutes. For this, the samples were placed in sterile saline and a timer set for each time. At the appropriate time, samples were removed from the saline and placed approximately in the center of the plate. Plates were incubated inverted for 24 hours at which time pictures were taken with a digital camera. Zones-of-inhibition were compared visually between groups."}, "S. aureus (ATCC #25983) [3]": {"tested_on": "S. aureus (ATCC #25983)", "assay": "Zone-of-inhibition after ethylene oxide or E-beam sterilization of coated SIS discs (Example 4)", "method": "as §3, with “was” for “(Molar ratio 1:1.5) and BisBAL (1:1.5) (50 mg each) were”, “Inc. as previously described.” for “Inc.”, “BisEDT was” for “Bismuth thiols were”, “BisEDT solution” for “bismuth thiol solutions”, “solvent. For the ethylene oxide sterilization compatibility experiment, 6 discs were coated with 10 μg/cm^2 BisEDT and packaged into 2 separate tyvek pouches with 3 discs per pouch. One pouch was placed in a drawer until use and left non-sterile and the other pouch was sterilized with low temperature ethylene oxide sterilization. For the E-beam sterilization, essentially the same process was performed except the discs were packaged in foil pouches and the samples were subjected to E-beam sterilization with a dose of ˜25 kGy.” for “solvent.”, “dishes. […]” for “dishes.”"}, "A. niger(ATCC #16404)": {"tested_on": "A. niger(ATCC #16404)", "assay": "Anti-fungal zone-of-inhibition / growth inhibition, coated SIS discs (Example 5)", "conditions": "100 μg/cm^2 on SIS disc", "method": "(§4) BisEDT was obtained from Microbion, Inc. as previously described. Small intestinal submucosa (SIS) was obtained and processed into 4-layer lyophilized sheets as described in Example 1. The sheets were subsequently cut into 15 mm discs (˜1.76 cm^2) using a disc punch. BisEDT was resuspended in dimethyl sulfoxide (DMSO) and diluted to appropriate concentrations for coating. Discs were coated with the BisEDT solution at a final concentration of 3.5 μg/μl using 50 μl of the solution per disc for a final concentration of 100 μg/cm^2. The discs were subsequently placed in a lyophilizer overnight to remove the DMSO solvent. A total of 6 coated discs were made—3 each for the two microorganisms investigated. These were compared against 3 uncoated controls discs cut from the same lot of SIS for each microorganism. C. albicans (ATCC #10231) and A. niger(ATCC #16404) were plated on Rose Bengal Chloramphenicol (RBC) in Petri dishes.\n(§5) The experiment consisted of a total of […] (3 BisEDT 100 μg/cm^2 coated, 3 uncoated controls) for each fungus. A lawn of either C. albicans or A. niger was swabbed onto the RBC plates. Each disc was rehydrated in sterile saline for ˜5 minutes then placed approximately in the center of the plate. Plates were incubated inverted for ˜48 hours for C. albicans or 5 and 8 days for A. niger at which time pictures were taken with a digital camera. Zones-of-inhibition or growth inhibition was compared visually between groups."}, "[4]": {"tested_on": "C. albicans (ATCC #10231)", "assay": "Anti-fungal zone-of-inhibition / growth inhibition, coated SIS discs (Example 5)", "conditions": "100 μg/cm^2 on SIS disc, ~48 hours", "method": "as §4, §5"}}, "data": [{"substance": "bismuth-1,2-ethanedithiol [BisEDT]", "values": [{"measurement": "Zone-of-inhibition, distance of bacterial growth inhibition from the disc edge", "setting": "E. coli (ATCC #25922)", "value": 1.28}, {"measurement": "Zone-of-inhibition, distance of bacterial growth inhibition from the disc edge", "setting": "S. aureus (ATCC #25983) [1]", "value": 6.83}, {"measurement": "Effect of rehydration time on zone-of-inhibition, visual comparison", "setting": "S. aureus (ATCC #25983) [2]; 10 μg/cm^2, rehydration 0-60 minutes in sterile saline", "value": "no visual differences between the rehydration time points"}, {"measurement": "Zone-of-inhibition, visual", "setting": "S. aureus (ATCC #25983) [2]; 10 μg/cm^2 on SIS disc, rehydration 0, 5, 10, 20, 30 or 60 minutes", "value": "significant effectiveness in creating a zone-of-inhibition"}, {"measurement": "Zone-of-inhibition, visual", "setting": "S. aureus (ATCC #25983) [3]; S. aureus, 10 μg/cm^2 on SIS disc, sterilized (ethylene oxide or E-beam ~25 kGy) and non-sterile", "value": "effectiveness at creating a zone-of-inhibition"}, {"measurement": "Compatibility with sterilization technique", "setting": "S. aureus (ATCC #25983) [3]; ethylene oxide vs E-beam (~25 kGy), zone-of-inhibition against S. aureus compared visually", "value": "E-beam sterilization exhibited greater compatibility with BisEDT than ethylene oxide sterilization"}, {"measurement": "Mold growth on coated disc", "setting": "A. niger(ATCC #16404); 5 days", "value": "able to grow up to the disc edge but not on the BisEDT coated disc"}, {"measurement": "Mold growth on coated disc", "setting": "A. niger(ATCC #16404); eight day time point", "value": "still unable to grow on the BisEDT coated discs"}, {"measurement": "Zone-of-inhibition from the disc edge", "setting": "[4]", "value": "~1", "unit": "mm"}]}]}
